# Target: T1, human GnRH receptor (Homo sapiens, UniProt P30968)
# T1 construct: expressed in transfected cells; membrane preparations
# T1 sequence (P30968 1-328): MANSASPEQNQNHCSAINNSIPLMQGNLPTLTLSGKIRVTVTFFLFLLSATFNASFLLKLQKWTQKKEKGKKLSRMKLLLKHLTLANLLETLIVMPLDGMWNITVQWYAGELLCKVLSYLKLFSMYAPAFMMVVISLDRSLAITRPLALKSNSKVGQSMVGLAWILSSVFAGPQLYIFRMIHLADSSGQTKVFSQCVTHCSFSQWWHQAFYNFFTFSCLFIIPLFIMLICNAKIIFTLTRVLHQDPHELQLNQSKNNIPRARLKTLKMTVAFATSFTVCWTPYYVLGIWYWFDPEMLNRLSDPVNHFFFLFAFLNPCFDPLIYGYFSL
# Experiment: peptide competitive human receptor binding assays (radioligand displacement)
# Settings: tested in one or more of the peptide competitive human receptor binding assays
# Procedure: HEK293 cells stably transfected with the human GnRH receptor are grown for two days after achieving confluence then are harvested by striking tissue culture flasks against a firm surface. Cells are collected by centrifugation at 1000 g for […]. Cell pellets are resuspended in 5% sucrose and homogenized using a polytron homogenizer for two 15 second homogenization steps. Cell homogenates are then centrifuged for 5 minutes at 3000 g to remove nuclei and the supernatant subsequently centrifuged for 30 minutes at 44,000 g to collect the membrane fraction. The membrane pellet is resuspended in GnRH binding buffer (10 mM HEPES, pH 7.5, 150 mM NaCl and 0.1% BSA) and aliquots immediately snap-frozen in liquid nitrogen and stored at −80° C. Protein content of the membrane suspension is determined using the Bio-Rad protein assay kit (Bio-Rad).
# RBL cells stably transfected with the human GnRH receptor are grown to 80% confluency prior to harvesting. The cells are incubated at 37° C. for 10 min in 0.5 mM EDTA/PBS (Ca^++, Mg^++ free), and are dislodged from the plate by gentle rapping of the flasks. Cells are collected and pelleted by centrifugation at 1000 g for 5 minutes. Cell pellets are resuspended in buffer (DPBS supplemented with 10 mM MgCl2, 2 mM EGTA, pH=7.4), and cell lysis is performed using a pressure cell and applying N2 at a pressure of 900 psi for 30 min at 4° C. Unbroken cells and larger debris were removed by centrifugation at 1200 g for 10 min at 4° C. The cell membrane supernatant is then centrifuged at 45,000 g and the resulting membrane pellet is resuspended in assay buffer and homogenized on ice using a tissue homogenizer. Protein concentrations are determined using the Coomassie Plus Protein Reagent kit. Membranes are aliquoted and stored at −80° C. until ready for use.
# Radioligand binding displacement assays using the peptide radioligands are performed in buffer containing 10 mM HEPES, 150 mM NaCl and 0.1% BSA, pH=7.5. Radioligand binding assays employing the use of [^3H]-1-(2,6-difluorobenzyl)-3-[(2R)-amino-2-phenethyl]-5-(2-fluoro-3-methoxyphenyl)-6-methyluracil (here the 3-methoxy group is tritiated) are run in buffer containing 50 mM Tris, 150 mM NaCl, 5 mM MgCl2, 0.01% saponin and 0.5 mM EDTA, pH=7.5. Radioligand displacement assays are performed by incubating radioligand ([^125I-Tyr^5, DLeu^6, NMeLeu^7, Pro^9-NEt]GnRH (0.1 nM), [His^5, ^125I-DTyr^6]GnRH (0.2 nM) (31) or [^3H]-1-(2,6-difluorobenzyl)-3-[(2R)-amino-2-phenethyl]-5-(2-fluoro-3-methoxyphenyl)-6-methyluracil (1 nM)), unlabeled competitors at concentrations ranging from 0.3 pM to 10 μM, and membranes for 2 hrs at rt. 10 to 20 μg protein/well is used from membrane preparations for human, monkey and rabbit GnRH receptor. 5 μg/well and 60 μg/well of membranes are used for rat and dog GnRH receptors, respectively. Binding assays are performed in either Millipore 96-well GF/C filtration plates (for ([^125I-Tyr^5, DLeu^6, NMeLeu^7, Pro^9-NEt]GnRH assays), or in 96 well low binding plates, which are subsequently filtered onto GF/C Unifilters. Filters are pretreated with 0.5% PEI for 30 min prior to use. Reactions are terminated by rapid vacuum filtration, and the filters are washed twice with 250 μL ice cold PBS pH=7.4 (0.01% Tween-20 is included in wash media for [His^5, ^125I-DTyr^6]GnRH and [^3H]-1-(2,6-difluorobenzyl)-3-[(2R)-amino-2-phenethyl]-5-(2-fluoro-3-methoxyphenyl)-6-methyluracil radioligands). The filters are dried, and the Millipore filters are monitored for radioactivity using a Cobra II gamma counter (Perkin Elmer Life Sciences). For assays filtered onto the GF/C Unifilter plates, 50 μL scintillation fluid is added to each filter, and radioactivity is monitored using a TopCount NXT. For iodinated radioligands, total radioligand is monitored on a gamma counter, and for the tritiated radioligand, total radioligand is monitored using a Perkin Elmer 1600TR liquid scintillation counter. […]
row,Ki,Structure (SMILES)
1,≤ 0.1 µM,"N#Cc1cc(C(F)(F)F)ncc1-c1cc(S(=O)(=O)N2CCCCc3ccccc32)c(OCCCC(=O)O)cc1Cl [Example 7-1, 4-[5-chloro-4-(4-cyano-6-trifluoromethyl-pyridin-3-yl)-2-(2,3,4,5-tetrahydro-benzo[b]azepine-1-sulfonyl)-phenoxy]-butyric acid]"
2,≤ 0.1 µM,"CC1(C)CCN(S(=O)(=O)c2cc(-c3cnc(C(F)(F)F)cc3C#N)c(Cl)cc2OCCCO)c2ccccc21 [Example 11-3, 5-[2-chloro-5-(4,4-dimethyl-3,4-dihydro-2H-quinoline-1-sulfonyl)-4-(3-hydroxy-propoxy)-phenyl]-2-trifluoromethyl-isonicotinonitrile]"
3,≤ 0.1 µM,COc1cc(Cl)c(-c2cnc(C(F)(F)F)cc2C#N)cc1S(=O)(=O)N(C)c1ccc(Cl)c(Cl)c1 [Example 15-8]
4,≤ 0.1 µM,"CC1(C)CCN(S(=O)(=O)c2cc(-c3cnc(C(F)(F)F)cc3C#N)c(Cl)cc2OCC(=O)O)c2ccccc21 [Example 12-2, [5-chloro-4-(4-cyano-6-trifluoromethyl-pyridin-3-yl)-2-(4,4-dimethyl-3,4-dihydro-2H-quinoline-1-sulfonyl)-phenoxy]-acetic acid]"
5,≤ 0.1 µM,COc1cc(Cl)c(-c2cnc(C(F)(F)F)cc2C#N)cc1S(=O)(=O)N1CCC(C)(C)c2ccccc21 [Example 15-2]
6,≤ 0.1 µM,COc1cc(Cl)c(-c2cnc(C(F)(F)F)cc2C#N)cc1S(=O)(=O)N(C)CC(C)C [Example 15-21]
7,≤ 0.1 µM,Cc1cc(Cl)c(-c2cc(S(=O)(=O)N3CCCc4ccccc43)ccc2Cl)cn1 [Example 4-8]
8,≤ 0.1 µM,COc1cc(Cl)c(-c2cnc(C(F)(F)F)cc2C#N)cc1S(=O)(=O)N(C)c1ccccn1 [Example 15-18]
9,≤ 0.1 µM,O=S(=O)(c1ccc(Cl)c(-c2cnc(Cl)cc2Cl)c1)N1CCCc2ccccc21 [Example 5-3]
10,≤ 0.1 µM,COc1cc(Cl)c(-c2cnc(C(F)(F)F)cc2C#N)cc1S(=O)(=O)N(C)Cc1ccco1 [Example 15-39]
11,≤ 0.1 µM,CC1(C)CCN(S(=O)(=O)c2ccc(Cl)c(-c3cnc(C(F)(F)F)cc3C#N)c2)c2ccccc21 [Example 4-16]
12,≤ 0.1 µM,N#Cc1cc(C(F)(F)F)ncc1-c1cc(S(=O)(=O)N2CCCCc3ccccc32)c(O)cc1Cl [Example 8-2]
13,≤ 0.1 µM,Cc1cc(Cl)ncc1-c1cc(S(=O)(=O)N2CCCc3ccccc32)ccc1Cl [Example 4-3]
14,≤ 0.1 µM,"O=S(=O)(c1ccc(Cl)c(-c2cnc(Cl)cc2Cl)c1)N1CCCCc2ccccc21 [Example 5-1, 1-[4-Chloro-3-(4,6-dichloro-pyridin-3-yl)-benzenesulfonyl]-2,3,4,5-tetrahydro-1H-1-benzazepine]"
15,≤ 0.1 µM,COc1cc(Cl)c(-c2cnc(C(F)(F)F)cc2C#N)cc1S(=O)(=O)N(C)c1c(C)cccc1OC [Example 15-15]
16,≤ 0.1 µM,CC1(C)CCN(S(=O)(=O)c2ccc(Cl)c(-c3nc4ccccc4cc3C#N)c2)c2ccccc21 [Example 4-19]
17,≤ 0.1 µM,Cc1cc(C(F)(F)F)ncc1-c1cc(S(=O)(=O)N2CCCCc3ccccc32)ccc1Cl [Example 4-9]
18,≤ 0.1 µM,"CN(c1ccccc1)S(=O)(=O)c1cc(-c2cnc(C(F)(F)F)cc2C#N)c(Cl)cc1OCC(=O)O [Example 19-1, [5-chloro-4-(4-cyano-6-trifluoromethyl-pyridin-3-yl)-2-(methyl-phenyl-sulfamoyl)-phenoxy]-acetic acid]"
19,≤ 0.1 µM,Cc1cccc2c1N(S(=O)(=O)c1ccc(Cl)c(-c3cnc(C(F)(F)F)cc3C#N)c1)CCCO2 [Example 4-20]
20,≤ 0.1 µM,"N#Cc1cc(C(F)(F)F)ncc1-c1cc(S(=O)(=O)N2CCCCc3ccccc32)c(OCCC(=O)O)cc1Cl [Example 10-2, 3-[5-chloro-4-(4-cyano-6-trifluoromethyl-pyridin-3-yl)-2-(2,3,4,5-tetrahydro-benzo[b]azepine-1-sulfonyl)-phenoxy]-propionic acid]"
21,≤ 0.1 µM,N#Cc1cc(C(F)(F)F)ncc1-c1cc(S(=O)(=O)N2CCCCc3ccccc32)ccc1Cl [Example 4-13]
22,≤ 0.1 µM,COc1cc(Cl)c(-c2cnc(C(F)(F)F)cc2C#N)cc1S(=O)(=O)N(C)Cc1cccc(F)c1 [Example 15-34]

# Reference: patent publication US8507536B2, “Gonadotropin-releasing hormone receptor antagonists and methods relating thereto” (Neurocrine Biosciences, Inc., priority 2007, dated 2013)
